The values below come from publication PMC12035805, “A Water-Soluble Aggregation-Induced Emission Photosensitizer with Intrinsic Antibacterial Activity as an Antiplanktonic and Antibiofilm Therapeutic Agent” (Journal of Medicinal Chemistry, 2025).

A short description of data set [1]: Hemolysis of human erythrocytes. Type of data set: cell-based. Particulars: 200 μM compound, 1 h, 37 °C. The protocol: (§1) The human erythrocyte concentrate was prepared according to the kit manual from the Biomaterial Hemolytic Assay Kit (Hemoscan). After the human erythrocytes had been washed and diluted with manufacture buffer, 100 μL of erythrocytes (10%) were added into 100 μL of various concentrations of compounds in PBS. 1% of Triton X (1%) was the positive control, while PBS was the negative control. The erythrocytes were then gently mixed with the TPA compounds and further incubated for an hour at 37 °C. After that, the erythrocytes were centrifuged (1000 rpm, 5 min), and 20 μL of supernatant was added to 180 μL of PBS in a 96-well plate. The optical density at 380, 415, and 450 nm was measured by a plate reader. The final OD value of the compounds was calculated as (2 × OD415) – (OD450 + OD380) where OD380, OD415, and OD450 are the optical density of the solution at 380, 415, and 450 nm, respectively. The hemolysis rates of the compounds were calculated as (ODcompound – ODPBS)/(ODTritonX – ODPBS) × 100% where ODcompound, ODPBS, and ODTritonX are the final OD values of the erythrocytes mixed with TPA compounds, PBS, and 1% Triton X, respectively. The experiment was performed in triplicate.

The test system of the next data set is human erythrocytes. Put plainly: Hemolysis of human erythrocytes. Type of data set: cell-based. The protocol:
as §1

A short description of data set [2]: Log P, 1-octanol/water partition. It is filed as physicochemical. Particulars: 1-octanol/water (1:1). The protocol:
The log P values of TPA compounds were obtained according to previously reported methods.[66] 1-octanol was first presaturated with water. Equal volume and concentration of TPA-NC-1, TPA-0, and TPA-1 were added to a 1-octanol/water (1:1) mixture and vortexed for 1 min. The mixture was then centrifuged for 5 min at 13,500 rpm. After that, the absorptions of the compound in the 1-octanol and water phases were measured. The concentrations of the compound in both phases were calculated by using the absorption calibration curve of the corresponding compound. Log P = log (concentration of the compound in 1-octanol/concentration of the compound in water).

Data set [3] in a line: Cytotoxicity (MTT) assay against HFF-1 cells. It is filed as cell-based. The note with it: human, no irradiation, read-out: 50% cytotoxicity concentration (CC50) against HFF-1 cells. The protocol:
The cytotoxicity of TPA-1, TPA-0, and TPA-NC-1 against HFF-1 cells was evaluated using the 3-(4,5-dimethylthiazol-2-yl)-2,5-diphenyltetrazolium bromide (MTT) assay kit from ThermoFisher Scientific. In general, HFF-1 cells (MEM, 10% FBS, and 1% penicillin-streptomycin) were seeded in a 96-well plate with a density of 3000 cells/well overnight at 37 °C with 5% CO2. Then, the cells were treated with different concentrations of compounds for 24 h. MTT (10 μL, 5 mg/mL) was added to the medium, and the cells were further incubated for 3 h. The medium was then replaced by DMSO (100 μL). After gently shaking the plate for 30 s, the optical density of the solutions at 570 nm was measured by a BMG Labtech CLARIOstar microplate reader. The cell viability was calculated as (ODcompound – ODDMSO)/(ODmedium - ODDMSO) × 100% where ODcompound, ODmedium, and ODDMSO are the optical densities of the treated cell, nontreated cells, and DMSO at 570 nm, respectively. The experiment was conducted in triplicate. The CC50 values were calculated using GraphPad Prism 8.

Data set [4] concerns methicillin-resistant S. aureus (BAA 41). Put plainly: MIC assay (broth microdilution, CLSI), without light. It is filed as cell-based. The note with it: Staphylococcus aureus, BAA41, light or radiation study, read-out: MIC against methicillin-resistant S. aureus (BAA 41). The protocol: (§2) The MIC assays of TPA-1 were conducted according to the broth microdilution methods described in the Clinical and Laboratory Standards Institute (CLSI) standard. A single colony of S. aureus (ATCC 29213), methicillin-resistant S. aureus (BAA 41), or P. aeruginosa (ATCC 27853) on an LB agar plate was picked and suspended in Mueller–Hinton Broth (MHB). The bacterial culture was grown overnight at 37 °C. The next day, the bacteria culture was diluted 100 times in fresh MHB and grown to the mid log phase. Bacteria in the mid log phase were further diluted to 5 × 10^6 CFU/mL in cation-adjusted MHB (S. aureus) or MHB (P. aeruginosa). Ten μL of the diluted bacteria were added to a 96-well plate containing 90 μL of serial diluted TPA-1 in the corresponding medium. The plate was incubated overnight at 37 °C. The MICs of the TPA compounds were the concentrations at which no apparent bacteria were observed by the naked eye. Different concentrations of LTA were also added to examine the change in MIC values of TPA-1 against S. aureus. The experiments were conducted in triplicate.
On the technique in general: Dilution methods test growth across graded concentrations, often in twofold steps.

For a further data set, the system named is S. aureus (ATCC 29213). The description is as above. Particulars: Staphylococcus aureus, ATCC29213, light or radiation study, read-out: MIC against S. aureus (ATCC 29213). Type of data set: cell-based. The protocol:
as §2

The test system of data set [5] is P. aeruginosa (ATCC 27853). Described as above. The note with it: Pseudomonas aeruginosa, ATCC27853, light or radiation study; without light irradiation; read-out: MIC against P. aeruginosa (ATCC 27853). It is filed as cell-based. The protocol:
as §2

For the next data set, the system named is S. aureus. Put plainly: Resistance development assay on S. aureus. Type of data set: cell-based, Staphylococcus aureus. The protocol:
The MICs for TPA-1 and norfloxacin against S. aureus were first determined by the above-mentioned method. The wells with 0.5 × MIC of compounds were transferred to 1 mL fresh MHB and incubated under darkness for 3–4 h at 37 °C. The bacteria were then used to conduct a MIC assay again. The experiments were repeated for 20 days. The fold changes in the MIC values of the compounds were recorded. The experiments were performed in duplicate.

In brackets after ≈: the same amount, converted by molar mass. Like-named read-outs stand apart in the source and are kept apart here.

Broadly, the HC50 is the concentration giving 50% haemolysis. One may read the logP as the decadic logarithm of the partition coefficient of the neutral form, usually between octanol and water. Lower therefore signals lower lipophilicity. Regarding `CC[n+]1c(/C=C/c2ccc(-c3ccc(N(c4ccc(OCCC[N+](C)(C)C)cc4)c4ccc(OCCC[N+](C)(C)C)cc4)cc3)s2)sc2ccccc21.[Br-].[Br-].[Br-]` [TPA-0], in data set [1], the hemolysis at 1 h, 200 µM was < 3%. Besides, the HC50 in the data set with human erythrocytes was > 200 µM. In addition, the logP in data set [2] is -1.7. The CC50 at 24 h in data set [3] is 120 ± 20 µM.

A word on the MIC: it is the lowest concentration that inhibits growth of the organism. Regarding `CN[C@H](CC(C)C)C(=O)N[C@H]1C(=O)N[C@@H](CC(N)=O)C(=O)N[C@H]2C(=O)N[C@H]3C(=O)N[C@H](C(=O)N[C@H](C(=O)O)c4cc(O)cc(O)c4-c4cc3ccc4O)[C@H](O)c3ccc(c(Cl)c3)Oc3cc2cc(c3O[C@@H]2O[C@H](CO)[C@@H](O)[C@H](O)[C@H]2O[C@H]2C[C@](C)(N)[C@H](O)[C@H](C)O2)Oc2ccc(cc2Cl)[C@H]1O` [Vancomycin, reference compound], the MIC (in data set [4]; in the data set on S. aureus (ATCC 29213)) was 0.625 µM (≈ 0.906 µg/mL) throughout.

`C[C@@H](O)[C@H]1C(=O)N2C(C(=O)O)=C(S[C@@H]3CN[C@H](C(=O)N(C)C)C3)[C@H](C)[C@H]12` [Meropenem, reference compound]: the MIC was found to be 2.5 µM (≈ 0.959 µg/mL) in data set [5] and 0.312 µM (≈ 0.12 µg/mL) in the data set with S. aureus (ATCC 29213) (without light irradiation).

For `CC[n+]1c(/C=C/c2ccc(-c3ccc(N(c4ccc(OC)cc4)c4ccc(OC)cc4)cc3)s2)sc2ccccc21.[Br-]` [TPA-NC-1, reference compound], the hemolysis at 1 h, 200 µM in data set [1] was > 60%. Moreover, in the data set on human erythrocytes, the concentration for 50% haemolysis (HC50) is < 200 µM. The compound further came in with a log partition coefficient (logP) in data set [2] of 1.1. Further, the CC50 at 24 h in data set [3] is 7.8 ± 0.7 µM.

`CCn1cc(C(=O)O)c(=O)c2cc(F)c(N3CCNCC3)cc21` [norfloxacin, reference compound]: the “increase of MIC against S. aureus after treatment for 20 days” value in the data set with S. aureus (20 days of passages at 0.5 × MIC) is 1024 fold. For the same compound, in the data set on S. aureus (Staphylococcus aureus, read-out: initial MIC against S. aureus in resistance development assay), the MIC turned out to be 0.5 µM (≈ 0.16 µg/mL).
